Measured values published in ChEMBL document CHEMBL1127505, “Structure-activity relationships of new taxoids derived from 14 beta-hydroxy-10-deacetylbaccatin III” (J Med Chem, 1994).

Key:
Type in all cases: functional, cell-based
A549 = assay: In vitro cytotoxicity against human non-small cell lung carcinoma A549
A121 = assay: In vitro cytotoxicity against human ovarian carcinoma […]
HT-29 = assay: In vitro cytotoxicity against human colon carcinoma HT-29
MCF7 [1] = assay: In vitro cytotoxicity against human mammary carcinoma cells 180 fold resistant to adriamycin MCF7-R
MCF7 [2] = assay: In vitro cytotoxicity against human mammary carcinoma MCF-7

## CC(=O)O[C@@]12CO[C@@H]1C[C@H](O)[C@@]1(C)C(=O)[C@H](O)C3=C(C)[C@@H](OC(=O)[C@H](O)[C@@H](NC(=O)c4ccccc4)c4ccccc4)[C@@H]4OC(=O)O[C@]4([C@@H](OC(=O)c4ccccc4)C12)C3(C)C (some centres not stated)
A549
  IC50: 0.033 µM
A121
  IC50: 0.105 µM
HT-29
  IC50: 0.024 µM
MCF7 [1]
  IC50: > 1 µM
MCF7 [2]
  IC50: 0.011 µM

## CC(=O)O[C@@]12CO[C@@H]1C[C@H](O)[C@@]1(C)C(=O)[C@H](O)C3=C(C)[C@@H](O)[C@H](OC(=O)[C@@H](O)C(NC(=O)OC(C)(C)C)c4ccccc4)[C@@](O)([C@@H](OC(=O)c4ccccc4)C12)C3(C)C (some centres not stated)
A549
  IC50: 0.031 µM
A121
  IC50: 0.08 µM
HT-29
  IC50: 0.05 µM
MCF7 [1]
  IC50: > 1 µM
MCF7 [2]
  IC50: 0.026 µM

## CC(=O)O[C@@]12CO[C@@H]1C[C@H](O)[C@@]1(C)C(=O)[C@H](O)C3=C(C)[C@@H](O)[C@H](OC(=O)[C@@H](O)C(NC(=O)c4ccccc4)c4ccccc4)[C@@](O)([C@@H](OC(=O)c4ccccc4)C12)C3(C)C (some centres not stated)
A549
  IC50: 0.512 µM
A121
  IC50: 1.04 µM
HT-29
  IC50: 0.248 µM
MCF7 [1]
  IC50: > 1 µM
MCF7 [2]
  IC50: 0.269 µM

## CC(=O)O[C@@]12CO[C@@H]1C[C@H](O)[C@@]1(C)C(=O)[C@H](O)C3=C(C)[C@@H](OC(=O)[C@H](O)[C@@H](NC(=O)OC(C)(C)C)c4ccccc4)[C@@H]4OC(=O)O[C@]4([C@@H](OC(=O)c4ccccc4)C12)C3(C)C (some centres not stated)
A549
  IC50: 0.0021 µM
A121
  IC50: 0.0062 µM
HT-29
  IC50: 0.0018 µM
MCF7 [1]
  IC50: 0.543 µM
MCF7 [2]
  IC50: 0.0018 µM

## CC(=O)O[C@H]1C(=O)[C@@]2(C)[C@H]([C@H](OC(=O)c3ccccc3)[C@]3(O)C[C@H](OC(=O)[C@H](O)[C@@H](NC(=O)c4ccccc4)c4ccccc4)C(C)=C1C3(C)C)[C@]1(OC(C)=O)CO[C@@H]1C[C@@H]2O [PACLITAXEL]
A121
  IC50: 0.0061 µM
HT-29
  IC50: 0.0032 µM
